Test results reported in patent US4910225A, “Locally administrable therapeutic composition for inflammatory disease” (Senju Pharmaceutical Co., Ltd., priority 1988, dated 1990).

How the values were obtained:
cyclooxgenase = settings: cited from earlier work
[1] = system: protein increase after paracentesis; test: Protein increase in aqueous humor after paracentesis; assay type: in vivo, albino rabbits; settings: content 0.5%
Method: (§1) The solutions of the following formulas were used.
(§2) Totally 28 male albino rabbits (4 rabbits×7 groups) with a body weight of about 2 kg werr used. They had been confirmed, before the experiment, to have mydriatic response to 1% atropine for at least 4 hours.
(§3) 50 μl each of 1% atropine solution was instilled into both eyes of the animals one hour before the 1st paracenthesis, in which approx. 0.2 ml/eye of aqueous humor (primary aqueous humor) was collected. Topical application of 50 μl each of the test drug solutions was conducted 30 min before the paracenthesis. Pupil diameter of each eye was measured with a slide caliper immediately before and 10 min after the paracenthesis. The 2nd paracenthesis was conducted 90 min after the 1st one, in which approx. 0.2 ml/eye of aqueous humor (secondary aqueous humor) was collected.

[2] = system: atropine-resistant miosis; test: Atropine-resistant miosis after paracentesis; assay type: in vivo, albino rabbits
Method: as §1, §2, §3

[3] = system: carrageenin edema in rats; test: Carrageenin edema of the conjunctiva in rats; assay type: in vivo; settings: 4 hours after carrageenin; for Weight of Edema: mean ± SE for 10 eyes
Method: 1. Sodium 3-(4-bromobenzoyl)-2-aminophenyl-acetate (hereinafter referred to as Compound [I])
2. Sodium 3-(4-chlorobenzoyl)-2-aminophenyl-acetate (hereinafter referred to as Compound [II])
3. Sodium 3-benzoyl-2-aminophenylacetate (hereinafter referred to as Compound [III])
Using female Wister rates weighing 100 g in groups of 5 animals or 10 eyes, 0.05 ml of 1% carrageenin (dissolved in physiological saline at 50° C.) as a phlogogen was injected beneath the conjuctiva of both eyes to induce edema. Physiological saline, as a control, and test drugs were respectively instilled into both eyes 40 and 20 minutes before and immediately after the injection of carrageenin, in the amount of 2.5 μl per dose. Four hours after the phlogogen treatment, each animal was sacrificed by cervical dislocation and in accordance with the method of Maistrello et al.^(2), the scalp was peeled off toward the eyelid and the edematous portion together with the skin was removed along the lid margin and weighed.
^(2) Maistrello et al.: Quantitative Effect of Topically Applied Anti-inflammatory Agents on External Ocular Inflammation in Rats: Journal of Pharmaceutical Science, volume 62, pp. 1455-60(1973).

SMILES	Cyclooxygenase inhibitory activity (cyclooxgenase)	Inhibition (protein increase) [1]	Inhibitory activity on miosis after paracentesis ([2]; Compound [I] 0.0001-0.1%, indomethacin as high as 0.5%)	Inhibition (miosis) ([2]; content 0.5%)	Miosis ([2]; content 0.5%, 10 min after paracentesis)	Degree of inhibition (carrageenin edema) ([3]; 1.0%)	Weight of Edema ([3]; 1.0%)	Degree of inhibition (carrageenin edema) ([3]; 5.0%)	Weight of Edema ([3]; 5.0%)	Degree of inhibition (carrageenin edema) ([3]; 0.5%)	Weight of Edema ([3]; 0.5%)
COc1ccc2c(c1)c(CC(=O)O)c(C)n2C(=O)c1ccc(Cl)cc1 [Indomethacin, reference compound]	strong cyclooxgenase inhibitory activity	69.7%	little effect was observed	6.0 ± 21.4%	16.4 ± 3.86%						
Nc1c(CC(=O)[O-])cccc1C(=O)c1ccccc1.[Na+] [Compound [III], Sodium 3-benzoyl-2-aminophenylacetate]						41.4%	30.98 ± 3.194 mg	37.9%	32.80 ± 2.409 mg		
Nc1c(CC(=O)[O-])cccc1C(=O)c1ccc(Cl)cc1.[Na+] [Compound [II], Sodium 3-(4-chlorobenzoyl)-2-aminophenyl-acetate]						34.4%	39.02 ± 3.057 mg			36.9%	37.52 ± 2.423 mg
